Measured values as given in patent publication US8822519B2, “Compound with agitation effect on peroxisome proliferator-activated receptor process for its preparation and use thereof” (Zhejiang Hisun Pharmaceutical Co., Ltd., priority 2008, dated 2014).

Experiments:
[1] = test system: high fat fodder obese C57BL/6J mice; assay: High fat fodder obese mice: body weight and food intake; type: in vivo
Excerpt: (§1) 3 week-old male C57BL/6J mice were chosen as experiment animals, 15 of which were randomly selected to feed with a standard fodder, and the remains were allowed to feed with a high fat fodder, with each of the mice being marked by ear-cutting. The body weights and fodder intake of the mice were weighed every week. […] After the administration of the inventive compounds for four weeks, the effects of the medicaments on the levels of blood lipid and blood glucose, body weight, and fodder intake in the animals were observed, while a glucose tolerance test was performed to investigate the effects of the medicaments on the glucose tolerance in the animals.

[2] = test system: high fat fodder obese C57BL/6J mice; assay: High fat fodder obese mice: levels of blood lipid and blood glucose; type: in vivo; set-up: HDL / GLU / TC / TG: unit not given here; settings: mean ± s, n 5
Excerpt: as §1, with “[…],” for “After the administration of the inventive compounds for four weeks,”

[3] = 2 weeks administration, 10 mg/kg
[4] = 2 weeks administration, 30 mg/kg
[5] = 4 weeks administration, 10 mg/kg
[6] = 4 weeks administration, 30 mg/kg

## CCCCCCCCCCC[C@@H](C[C@@H]1OC(=O)[C@H]1CCCCCC)OC(=O)[C@H](CC(C)C)NC=O [Orlistat, reference compound]
[1]; column 1, 10 mg/kg
  Food intake: 5.88 g
[1]; column 1, 30 mg/kg
  Food intake: 6.04 g
[1]; column 2, 10 mg/kg
  Food intake: 5.42 g
[1]; column 2, 30 mg/kg
  Food intake: 4.66 g
[1]; column 3, 10 mg/kg
  Food intake: 6.7 g
[1]; column 3, 30 mg/kg
  Food intake: 5.52 g
[1]; column 4, 10 mg/kg
  Food intake: 6.64 g
[1]; column 4, 30 mg/kg
  Food intake: 7.78 g
[1]; column 5, 10 mg/kg
  Food intake: 6.4 g
[1]; column 5, 30 mg/kg
  Food intake: 7.92 g
[2]; [3]
  GLU: 11.11 ± 1.08
  HDL: 3.29 ± 0.27
  TC: 3.81 ± 2.56
  TG: 0.36 ± 0.09
[2]; [4]
  GLU: 8.81 ± 2.16
  HDL: 2.72 ± 0.3
  TC: 3.89 ± 0.44
  TG: 0.45 ± 0.09
[2]; [5]
  GLU: 11.05 ± 1.09
  HDL: 2.63 ± 1.27
  TC: 4.24 ± 0.33
  TG: 0.28 ± 0.03
[2]; [6]
  GLU: 9.84 ± 1.83
  HDL: 2.79 ± 0.35
  TC: 3.48 ± 0.54
  TG: 0.41 ± 0.04
